Laboratory results: patent US8338414B2, “Immunosuppressive agent and anti-tumor agent comprising heterocyclic compound as active ingredient” (Zenyaku Kogyo KabushikiKaisha, priority 2005, dated 2012)
Read-outs that look alike come from different tables or passages of the source.

Assays:
mouse spleen cells = assay: Proliferation inhibition assay for mouse spleen cells; type: cell-based; conditions: 72 h, 3 days, Alamar Blue
Method: Spleen cells (2×10^6 cells/mL) prepared from C57BL/6N female mice (8 weeks old, purchased from Charles River Laboratories Japan Inc.) were suspended in RPMI 1640 medium (containing 10% fetal bovine serum, 10 mM HEPES, 1 mM pyruvic acid, 4.5 g/L glucose, 100 units/mL penicillin, and 0.1 mg/mL streptomycin), and seeded in wells of a 96 well plate at 0.225 mL per well. Serial dilutions of test substances were added to respective wells, and then concanavalin A (Con A, 3 μg/mL), lipopolysaccharide (LPS, 100 μg/mL), or an anti-mouse IgM antibody (100 μg/mL) were added. Thereafter, they were incubated under conditions of carbon dioxide 5% at a temperature 37° C. for 3 days. Next, Alamar Blue solution was added at 50 μL per 150 μL, and after having cultured for one day, the fluorescence intensity at 590 nm using an excitation wavelength of 530 nm was determined by Cytoflour 4000 (Applied Biosystems).

[1] = LPS 100 μg/mL, read-out: Inhibition of LPS response
[2] = anti-mouse IgM antibody 100 μg/mL, read-out: Inhibition of Anti-IgM antibody response
[3] = concanavalin A 3 μg/mL, read-out: Inhibition of Con A response

| SMILES | melting point | IC50 (mouse spleen cells; [1]) [nM] | IC50 (mouse spleen cells; [2]) [nM] | IC50 (mouse spleen cells; [3]) [nM] |
| --- | --- | --- | --- | --- |
| C[C@@H]1OCCN(c2nc(N3CCOCC3)nc(-n3cnc4ccccc43)n2)[C@H]1C (relative stereo) [Compound 2, 2-(Benzimidazol-1-yl)-4-(trans-2,3-dimethylmorpholino)-6-morpholino-1,3,5-triazine] | 147 to 150 °C | 100 to 10000 | 100 to 10000 | 100 to 10000 |
| C[C@@H]1OCCN(c2nc(N3CCOCC3)nc(-n3c(C(F)F)nc4ccc(N)cc43)n2)[C@@H]1C (relative stereo) [Compound 8, 2-(6-Amino-2-difluoromethylbenzimidazol-1-yl)-4-(cis-2,3-dimethylmorpholino)-6-morpholino-1,3,5-triazine] | 220 to 222 °C (dec.) | 100 to 10000 | 1 to 100 | 1 to 100 |
| Nc1nc2ccccc2n1-c1nc(N2CCOCC2)cc(N2CCOCC2)n1 [Compound 5, 2-(2-Aminobenzimidazol-1-yl)-4,6-dimorpholinopyrimidine] | 237 to 239 °C | 100 to 10000 | 100 to 10000 | 100 to 10000 |
| CCOc1ccc2nc(C(F)F)n(-c3nc(N4CCOCC4)nc(N4CCOCC4)n3)c2c1 [Compound 9, 2-(2-Difluoromethyl-6-ethoxybenzimidazol-1-yl)-4,6-dimorpholino-1,3,5-triazine] | 222 to 224 °C | 1 to 100 | 1 to 100 | 1 to 100 |
| Cc1cc2nc(C(F)F)n(-c3nc(N4CCOCC4)nc(N4CCOCC4)n3)c2cc1C [Production Example 29, 2-(5,6-Dimethyl-2-difluoromethylbenzimidazol-1-yl)-4,6-dimorpholino-1,3,5-triazine] | 217 to 220 °C | – | – | – |
| Nc1cc(Cl)c2nc(C(F)F)n(-c3nc(N4CCOCC4)nc(N4CCCC4CO)n3)c2c1 (stereo not drawn) [Production Example 30, 2-(6-Amino-4-chloro-2-difluoromethylbenzimidazol-1-yl)-4-(2-hydroxymethylpyrrolidin-1-yl)-6-morpholino-1,3,5-triazine] | 256 °C (dec.) | – | – | – |
| Oc1ccc2c(nc(C(F)F)n2-c2nc(N3CCOCC3)nc(N3CCOCC3)n2)c1Cl [Production Example 31, 2-(4-Chloro-2-difluoromethyl-5-hydroxybenzimidazol-1-yl)-4,6-dimorpholino-1,3,5-triazine] | > 250 °C | – | – | – |

The next lines start with results.

| melting point | SMILES | IC50 (mouse spleen cells; [1]) [nM] | IC50 (mouse spleen cells; [2]) [nM] | IC50 (mouse spleen cells; [3]) [nM] |
| --- | --- | --- | --- | --- |
| 190 to 192 °C | FC(F)c1nc2ccccc2n1-c1nc(N2CCCCC2)nc(N2CCOCC2)n1 [Compound 7, 2-(2-Difluoromethylbenzimidazol-1-yl)-4-piperidino-6-morpholino-1,3,5-triazine] | 100 to 10000 | 100 to 10000 | 100 to 10000 |
| 228 to 230 °C | O=CN1CCN(c2nc(N3CCOCC3)nc(-n3c(C(F)F)nc4ccccc43)n2)CC1 [Production Example 33, 2-(2-Difluoromethylbenzimidazol-1-yl)-6-(4-formylpiperazin-1-yl)-4-morpholino-1,3,5-triazine] | – | – | – |
| 255 to 257 °C | O=C1CN(c2nc(N3CCOCC3)nc(-n3c(C(F)F)nc4ccccc43)n2)CCN1 [Production Example 34, 2-(2-Difluoromethylbenzimidazol-1-yl)-4-morpholino-6-(3-oxopiperazin-1-yl)-1,3,5-triazine] | – | – | – |
| 230 to 232 °C | O=C1CN(c2nc(N3CCOCC3)nc(-n3c(C(F)F)nc4ccccc43)n2)CC(=O)N1 [Production Example 35, 2-(2-Difluoromethylbenzimidazol-1-yl)-6-(3,5-dioxopiperazin-1-yl)-4-morpholino-1,3,5-triazine] | – | – | – |
| 255 to 260 °C | COC(=O)N1CCN(c2nc(N3CCOCC3)nc(-n3c(C(F)F)nc4ccccc43)n2)CC1 [Production Example 43, 2-(2-Difluoromethylbenzimidazol-1-yl)-4-(4-methoxycarbonylpiperazin-1-yl)-6-morpholino-1,3,5-triazine] | – | – | – |
